Source: ChEMBL document CHEMBL5291721, “A preclinical secondary pharmacology resource illuminates target-adverse drug reaction associations of marketed drugs” (Nat Commun, 2023)

Key:
[1] = molecular target: T1, Prostaglandin G/H synthase 1 (Homo sapiens, UniProt P23219); format: functional
Acetylcholinesterase = Acetylcholinesterase (Homo sapiens, UniProt P22303); format: functional
[2] = molecular target: T2, Alpha-2A adrenergic receptor (Homo sapiens, UniProt P08913)
T2 sequence (P08913 whole entry): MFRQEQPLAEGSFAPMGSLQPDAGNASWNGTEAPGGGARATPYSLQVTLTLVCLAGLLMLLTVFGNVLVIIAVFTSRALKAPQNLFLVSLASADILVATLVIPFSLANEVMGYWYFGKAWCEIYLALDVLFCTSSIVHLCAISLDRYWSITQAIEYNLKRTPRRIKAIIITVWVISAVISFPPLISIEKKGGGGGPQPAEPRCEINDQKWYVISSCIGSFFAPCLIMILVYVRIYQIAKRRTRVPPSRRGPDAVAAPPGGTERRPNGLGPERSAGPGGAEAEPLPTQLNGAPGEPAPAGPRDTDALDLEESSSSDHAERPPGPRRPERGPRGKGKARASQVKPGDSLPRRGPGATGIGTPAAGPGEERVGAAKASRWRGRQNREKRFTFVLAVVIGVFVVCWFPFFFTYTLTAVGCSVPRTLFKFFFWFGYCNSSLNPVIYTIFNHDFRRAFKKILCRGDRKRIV

Histamine H3 receptor = Histamine H3 receptor (Homo sapiens, UniProt Q9Y5N1)
[3] = molecular target: T1, Prostaglandin G/H synthase 1; format: functional; remark: listed apart in the source
[4] = molecular target: Sodium-dependent dopamine transporter (Homo sapiens, UniProt Q01959)
D(3) dopamine receptor = D(3) dopamine receptor (Homo sapiens, UniProt P35462)
[5] = molecular target: Sodium-dependent noradrenaline transporter (Homo sapiens, UniProt P23975)
[6] = molecular target: T3, Alpha-1A adrenergic receptor (Homo sapiens, UniProt P35348); format: functional, cell-based
T3 sequence (P35348 whole entry): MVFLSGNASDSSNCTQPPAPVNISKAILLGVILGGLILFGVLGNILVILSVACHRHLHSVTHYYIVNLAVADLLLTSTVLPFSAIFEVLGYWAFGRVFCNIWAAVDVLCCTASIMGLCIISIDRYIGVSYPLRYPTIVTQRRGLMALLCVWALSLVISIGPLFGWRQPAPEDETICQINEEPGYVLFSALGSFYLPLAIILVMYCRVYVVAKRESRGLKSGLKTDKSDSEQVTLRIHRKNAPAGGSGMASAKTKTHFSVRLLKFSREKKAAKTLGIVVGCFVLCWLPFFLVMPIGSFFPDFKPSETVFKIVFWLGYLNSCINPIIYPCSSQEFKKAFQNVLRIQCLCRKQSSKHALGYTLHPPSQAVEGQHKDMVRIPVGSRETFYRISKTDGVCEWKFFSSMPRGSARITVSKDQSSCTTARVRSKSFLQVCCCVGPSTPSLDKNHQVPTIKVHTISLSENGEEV

[7] = molecular target: 5-hydroxytryptamine receptor 2B (Homo sapiens, UniProt P41595); format: functional, cell-based
Mu-type opioid receptor = Mu-type opioid receptor (Homo sapiens, UniProt P35372)
Sequence of Mu-type opioid receptor (P35372 whole entry): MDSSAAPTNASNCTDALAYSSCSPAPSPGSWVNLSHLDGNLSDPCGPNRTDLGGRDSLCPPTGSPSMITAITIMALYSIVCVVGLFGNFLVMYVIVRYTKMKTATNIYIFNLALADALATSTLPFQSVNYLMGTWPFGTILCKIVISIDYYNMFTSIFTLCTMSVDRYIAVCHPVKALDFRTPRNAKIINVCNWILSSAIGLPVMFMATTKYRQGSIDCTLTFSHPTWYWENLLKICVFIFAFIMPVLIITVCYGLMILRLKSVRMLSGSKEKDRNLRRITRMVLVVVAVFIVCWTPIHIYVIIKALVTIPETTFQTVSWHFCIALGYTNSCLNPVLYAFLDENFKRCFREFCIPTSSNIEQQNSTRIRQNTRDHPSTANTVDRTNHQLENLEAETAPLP

[8] = molecular target: T3, Alpha-1A adrenergic receptor; format: functional, cell-based; remark: listed apart in the source
D(1A) dopamine receptor = D(1A) dopamine receptor (Homo sapiens, UniProt P21728)
[9] = molecular target: cGMP-inhibited 3',5'-cyclic phosphodiesterase 3A (Homo sapiens, UniProt Q14432); format: functional
Sequence of cGMP-inhibited 3',5'-cyclic phosphodiesterase 3A (Q14432 whole entry): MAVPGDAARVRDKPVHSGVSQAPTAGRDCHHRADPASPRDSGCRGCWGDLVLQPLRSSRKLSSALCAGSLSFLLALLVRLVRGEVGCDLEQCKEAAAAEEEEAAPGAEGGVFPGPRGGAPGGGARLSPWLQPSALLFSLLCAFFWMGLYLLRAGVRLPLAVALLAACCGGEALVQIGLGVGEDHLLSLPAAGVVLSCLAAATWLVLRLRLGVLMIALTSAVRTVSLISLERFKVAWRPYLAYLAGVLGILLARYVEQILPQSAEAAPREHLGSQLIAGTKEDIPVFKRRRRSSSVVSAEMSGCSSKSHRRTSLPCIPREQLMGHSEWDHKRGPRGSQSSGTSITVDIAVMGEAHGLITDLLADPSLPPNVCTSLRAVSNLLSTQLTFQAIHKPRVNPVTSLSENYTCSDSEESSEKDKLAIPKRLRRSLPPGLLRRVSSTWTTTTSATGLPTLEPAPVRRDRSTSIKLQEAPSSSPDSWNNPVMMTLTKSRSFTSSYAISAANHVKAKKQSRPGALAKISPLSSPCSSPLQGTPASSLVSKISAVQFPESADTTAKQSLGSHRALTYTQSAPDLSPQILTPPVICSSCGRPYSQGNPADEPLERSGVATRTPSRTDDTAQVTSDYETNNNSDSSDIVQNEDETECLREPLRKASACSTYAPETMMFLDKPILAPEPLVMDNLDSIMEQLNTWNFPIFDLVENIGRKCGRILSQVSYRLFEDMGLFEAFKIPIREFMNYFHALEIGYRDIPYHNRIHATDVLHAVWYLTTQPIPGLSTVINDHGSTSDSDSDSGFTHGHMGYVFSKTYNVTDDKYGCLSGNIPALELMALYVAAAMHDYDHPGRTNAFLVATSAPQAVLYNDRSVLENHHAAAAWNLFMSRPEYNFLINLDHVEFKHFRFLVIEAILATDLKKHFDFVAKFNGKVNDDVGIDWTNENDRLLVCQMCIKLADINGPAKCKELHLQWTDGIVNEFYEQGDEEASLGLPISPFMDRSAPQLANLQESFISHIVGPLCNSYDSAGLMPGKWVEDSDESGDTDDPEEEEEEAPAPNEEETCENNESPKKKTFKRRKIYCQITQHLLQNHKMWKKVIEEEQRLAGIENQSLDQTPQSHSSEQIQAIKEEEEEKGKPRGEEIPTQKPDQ

[10] = molecular target: 3',5'-cyclic-AMP phosphodiesterase 4A (Homo sapiens, UniProt P27815); format: functional
Sequence of 3',5'-cyclic-AMP phosphodiesterase 4A (P27815 whole entry): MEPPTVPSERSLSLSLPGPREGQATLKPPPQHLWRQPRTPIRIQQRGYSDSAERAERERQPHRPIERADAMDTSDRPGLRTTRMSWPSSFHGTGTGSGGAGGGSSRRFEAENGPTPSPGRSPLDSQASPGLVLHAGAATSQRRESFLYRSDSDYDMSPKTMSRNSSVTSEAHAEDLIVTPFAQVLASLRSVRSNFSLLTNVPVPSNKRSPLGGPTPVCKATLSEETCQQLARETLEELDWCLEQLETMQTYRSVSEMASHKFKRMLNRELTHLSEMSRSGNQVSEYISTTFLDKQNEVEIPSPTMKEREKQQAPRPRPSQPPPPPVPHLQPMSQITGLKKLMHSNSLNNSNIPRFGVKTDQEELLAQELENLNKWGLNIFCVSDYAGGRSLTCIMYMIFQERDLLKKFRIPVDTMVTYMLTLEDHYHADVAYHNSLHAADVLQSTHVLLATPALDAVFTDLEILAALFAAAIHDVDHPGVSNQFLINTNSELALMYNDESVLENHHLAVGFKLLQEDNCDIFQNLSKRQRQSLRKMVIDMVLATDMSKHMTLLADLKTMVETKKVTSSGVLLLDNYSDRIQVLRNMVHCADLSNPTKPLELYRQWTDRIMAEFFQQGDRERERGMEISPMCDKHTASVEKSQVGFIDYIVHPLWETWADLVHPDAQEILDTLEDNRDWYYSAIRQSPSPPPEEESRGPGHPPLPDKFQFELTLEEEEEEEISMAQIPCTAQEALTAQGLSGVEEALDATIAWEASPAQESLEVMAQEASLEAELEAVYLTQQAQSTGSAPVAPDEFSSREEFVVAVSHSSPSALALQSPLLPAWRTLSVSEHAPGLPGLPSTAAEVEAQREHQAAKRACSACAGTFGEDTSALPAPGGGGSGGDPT

[11] = molecular target: Vascular endothelial growth factor receptor 2 (Homo sapiens, UniProt P35968); format: functional
Sequence of Vascular endothelial growth factor receptor 2 (P35968 whole entry): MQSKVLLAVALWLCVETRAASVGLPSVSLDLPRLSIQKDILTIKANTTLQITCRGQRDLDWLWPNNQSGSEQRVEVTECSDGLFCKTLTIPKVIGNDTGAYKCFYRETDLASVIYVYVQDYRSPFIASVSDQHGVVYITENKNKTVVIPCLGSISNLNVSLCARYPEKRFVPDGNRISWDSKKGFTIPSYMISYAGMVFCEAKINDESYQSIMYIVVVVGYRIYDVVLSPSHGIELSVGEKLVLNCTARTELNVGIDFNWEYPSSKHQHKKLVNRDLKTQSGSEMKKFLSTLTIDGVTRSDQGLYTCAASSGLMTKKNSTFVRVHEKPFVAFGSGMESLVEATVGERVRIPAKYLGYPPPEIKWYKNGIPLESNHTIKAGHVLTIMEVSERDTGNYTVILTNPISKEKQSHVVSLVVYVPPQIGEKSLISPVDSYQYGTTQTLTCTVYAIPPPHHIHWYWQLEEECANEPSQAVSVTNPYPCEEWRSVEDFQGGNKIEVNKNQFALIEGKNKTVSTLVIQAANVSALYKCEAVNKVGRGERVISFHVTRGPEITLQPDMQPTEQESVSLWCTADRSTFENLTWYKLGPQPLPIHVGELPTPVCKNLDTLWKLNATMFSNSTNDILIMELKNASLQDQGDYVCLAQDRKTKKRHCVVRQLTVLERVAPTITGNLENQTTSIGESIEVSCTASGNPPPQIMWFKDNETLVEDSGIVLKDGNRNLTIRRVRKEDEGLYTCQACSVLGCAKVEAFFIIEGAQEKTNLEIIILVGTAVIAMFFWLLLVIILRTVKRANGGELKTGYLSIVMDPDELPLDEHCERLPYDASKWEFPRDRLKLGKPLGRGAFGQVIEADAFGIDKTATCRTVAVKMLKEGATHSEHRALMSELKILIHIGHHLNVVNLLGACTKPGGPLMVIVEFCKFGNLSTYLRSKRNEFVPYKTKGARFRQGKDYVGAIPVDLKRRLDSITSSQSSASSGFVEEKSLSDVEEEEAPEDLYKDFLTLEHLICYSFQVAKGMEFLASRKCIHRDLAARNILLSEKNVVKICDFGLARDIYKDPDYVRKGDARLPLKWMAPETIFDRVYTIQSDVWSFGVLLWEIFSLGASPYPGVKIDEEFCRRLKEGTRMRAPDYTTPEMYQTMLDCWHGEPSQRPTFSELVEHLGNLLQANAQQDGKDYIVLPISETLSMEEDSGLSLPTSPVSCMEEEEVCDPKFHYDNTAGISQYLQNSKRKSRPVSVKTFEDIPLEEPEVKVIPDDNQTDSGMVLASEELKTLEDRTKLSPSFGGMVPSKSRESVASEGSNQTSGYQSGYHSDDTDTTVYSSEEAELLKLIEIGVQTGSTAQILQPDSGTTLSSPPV

Thromboxane A2 receptor [12] = molecular target: T4, Thromboxane A2 receptor (Homo sapiens, UniProt P21731); format: functional, cell-based
T4 sequence (P21731 whole entry): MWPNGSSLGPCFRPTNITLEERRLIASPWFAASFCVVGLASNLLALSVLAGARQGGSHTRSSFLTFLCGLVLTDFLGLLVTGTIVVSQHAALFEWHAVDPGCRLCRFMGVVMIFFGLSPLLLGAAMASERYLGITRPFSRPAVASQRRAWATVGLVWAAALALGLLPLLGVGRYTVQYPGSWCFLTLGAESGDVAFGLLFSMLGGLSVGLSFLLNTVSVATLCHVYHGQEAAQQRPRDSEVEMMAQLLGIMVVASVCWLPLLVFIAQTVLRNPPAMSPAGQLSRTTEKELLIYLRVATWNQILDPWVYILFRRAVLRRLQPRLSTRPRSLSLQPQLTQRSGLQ

Adenosine receptor A3 = molecular target: T5, Adenosine receptor A3 (Homo sapiens, UniProt P0DMS8)
T5 sequence (P0DMS8 whole entry): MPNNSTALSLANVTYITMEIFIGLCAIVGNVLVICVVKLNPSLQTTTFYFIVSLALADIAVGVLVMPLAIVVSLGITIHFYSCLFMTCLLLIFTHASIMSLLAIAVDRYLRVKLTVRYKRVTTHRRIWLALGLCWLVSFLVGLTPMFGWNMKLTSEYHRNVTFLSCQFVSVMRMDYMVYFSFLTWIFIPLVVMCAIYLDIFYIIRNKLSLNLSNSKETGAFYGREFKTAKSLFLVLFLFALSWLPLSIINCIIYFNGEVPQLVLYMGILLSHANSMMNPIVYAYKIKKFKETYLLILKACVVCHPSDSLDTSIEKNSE

Prothrombin = Prothrombin (Homo sapiens, UniProt P00734); format: functional
Thromboxane A2 receptor [13] = molecular target: T4, Thromboxane A2 receptor; format: functional, cell-based; remark: listed apart in the source
[14] = molecular target: Sodium-dependent serotonin transporter (Homo sapiens, UniProt P31645)
Sequence of Sodium-dependent serotonin transporter (P31645 whole entry): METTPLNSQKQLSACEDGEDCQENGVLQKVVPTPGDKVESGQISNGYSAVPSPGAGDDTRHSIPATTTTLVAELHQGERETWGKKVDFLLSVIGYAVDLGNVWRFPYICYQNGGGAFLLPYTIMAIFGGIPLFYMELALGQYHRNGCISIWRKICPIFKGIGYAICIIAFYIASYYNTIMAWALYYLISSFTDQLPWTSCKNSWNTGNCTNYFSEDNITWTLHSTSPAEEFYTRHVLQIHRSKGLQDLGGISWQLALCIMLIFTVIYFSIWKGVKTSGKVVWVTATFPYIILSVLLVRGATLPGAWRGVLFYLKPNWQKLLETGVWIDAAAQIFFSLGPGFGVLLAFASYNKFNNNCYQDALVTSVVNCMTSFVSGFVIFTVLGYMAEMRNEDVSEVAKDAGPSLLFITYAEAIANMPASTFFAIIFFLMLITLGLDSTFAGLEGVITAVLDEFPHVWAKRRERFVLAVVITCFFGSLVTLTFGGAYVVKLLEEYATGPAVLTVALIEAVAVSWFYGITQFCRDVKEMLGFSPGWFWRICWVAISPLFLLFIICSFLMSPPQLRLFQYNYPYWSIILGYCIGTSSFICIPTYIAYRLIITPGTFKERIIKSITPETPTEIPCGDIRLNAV
Also: assay procedure not described here.

Sequence of Acetylcholinesterase (P22303 whole entry): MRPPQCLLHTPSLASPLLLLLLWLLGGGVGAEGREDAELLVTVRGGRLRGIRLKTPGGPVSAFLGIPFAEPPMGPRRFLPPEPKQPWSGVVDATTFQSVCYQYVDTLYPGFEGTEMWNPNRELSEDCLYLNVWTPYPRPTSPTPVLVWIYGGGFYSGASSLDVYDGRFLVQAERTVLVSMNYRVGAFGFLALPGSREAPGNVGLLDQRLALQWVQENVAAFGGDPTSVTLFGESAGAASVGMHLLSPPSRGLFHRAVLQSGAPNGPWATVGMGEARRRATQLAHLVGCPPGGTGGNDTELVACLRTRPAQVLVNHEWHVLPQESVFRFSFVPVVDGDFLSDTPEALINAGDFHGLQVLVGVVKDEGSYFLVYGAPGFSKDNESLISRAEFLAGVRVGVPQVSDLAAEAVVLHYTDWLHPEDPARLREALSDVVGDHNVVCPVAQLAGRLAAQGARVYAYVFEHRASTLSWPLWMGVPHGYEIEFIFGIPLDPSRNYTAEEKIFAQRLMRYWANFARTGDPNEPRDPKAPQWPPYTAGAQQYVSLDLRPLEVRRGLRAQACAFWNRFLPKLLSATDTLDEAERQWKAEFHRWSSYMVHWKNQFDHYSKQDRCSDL

SMILES	AC50 [1]	AC50 (Acetylcholinesterase)	AC50 [2]	AC50 (Histamine H3 receptor)	AC50 [3]	AC50 [4]	AC50 [5]	AC50 [6]	AC50 [7]	AC50 (Mu-type opioid receptor)	AC50 [8]	AC50 (D(1A) dopamine receptor)	AC50 [9]	AC50 [10]	AC50 [11]	AC50 (Thromboxane A2 receptor [12])	AC50 (Adenosine receptor A3)	AC50 (Prothrombin)	AC50 (Thromboxane A2 receptor [13])	AC50 [14]	further results
Cc1ccc2c([nH]c(=O)c3c(=O)cc(C(=O)OCCC(C)C)oc32)c1C	21.3 µM	6.76 µM	> 30 µM	> 30 µM	> 30 µM	> 30 µM	> 30 µM	> 30 µM	> 10 µM	> 30 µM	> 30 µM	> 30 µM	> 30 µM	> 30 µM	> 30 µM	> 30 µM	0.0521 µM	> 30 µM	> 30 µM	> 30 µM	AC50 (D(3) dopamine receptor): > 30 µM
COC(=O)N[C@H](C(=O)N1CC2(CC2)C[C@H]1c1ncc(-c2ccc3c(c2)C(F)(F)c2cc(-c4ccc5nc([C@@H]6[C@H]7CC[C@H](C7)N6C(=O)[C@@H](NC(=O)OC)C(C)C)[nH]c5c4)ccc2-3)[nH]1)C(C)C	> 30 µM	> 30 µM	> 30 µM	> 30 µM	> 30 µM	> 30 µM	> 30 µM	> 30 µM	> 30 µM	> 30 µM	> 30 µM	> 30 µM	> 30 µM	> 30 µM	> 30 µM	> 30 µM	> 10 µM	> 30 µM	> 30 µM	> 30 µM	AC50 (D(3) dopamine receptor): > 10 µM
Cc1cnc(C(=O)O)c[n+]1[O-] [ACIPIMOX]	> 30 µM	> 30 µM	> 30 µM	> 30 µM	> 30 µM	> 30 µM	> 30 µM	> 30 µM	> 30 µM	> 30 µM	> 30 µM	> 30 µM	> 30 µM	> 30 µM	> 30 µM	> 30 µM	> 30 µM	> 30 µM	> 30 µM	> 30 µM	AC50 (D(3) dopamine receptor): > 30 µM
Nc1ccc(C(=O)NCC(=O)O)cc1 [AMINOHIPPURIC ACID]	> 30 µM	> 30 µM	> 30 µM	> 30 µM	> 30 µM	> 30 µM	> 30 µM	> 30 µM	> 30 µM	> 30 µM	> 30 µM	> 30 µM	> 30 µM	> 30 µM	> 30 µM	> 30 µM	> 30 µM	> 30 µM	> 30 µM	> 30 µM	AC50 (D(3) dopamine receptor): > 30 µM
CC1(C)S[C@@H]2[C@H](NC(=O)[C@H](NC(=O)c3cnc4cccnc4c3O)c3ccccc3)C(=O)N2[C@H]1C(=O)O [APALCILLIN]	14.6 µM	> 30 µM	> 30 µM	> 30 µM	17.6 µM	> 30 µM	> 30 µM	> 30 µM	> 30 µM	> 30 µM	> 30 µM	> 30 µM	> 30 µM	> 30 µM	> 30 µM	> 30 µM	29 µM	> 30 µM	> 30 µM	> 30 µM	AC50 (D(3) dopamine receptor): > 30 µM
CC(C)Cc1ccc(C(C)C(=O)OCc2ccccn2)cc1 (stereo not drawn) [IBUPROFEN PICONOL]	10.8 µM	> 30 µM	> 30 µM	> 30 µM	> 30 µM	> 30 µM	22.1 µM	> 30 µM	> 30 µM	> 30 µM	> 30 µM	> 30 µM	> 30 µM	> 30 µM	> 30 µM	> 30 µM	15.8 µM	> 30 µM	> 30 µM	> 30 µM	–
CCn1c(=O)c2c(nc(/C=C/c3ccc(OC)c(OC)c3)n2C)n(CC)c1=O [ISTRADEFYLLINE]	> 30 µM	> 30 µM	> 10 µM	> 30 µM	> 30 µM	> 30 µM	> 30 µM	> 30 µM	> 30 µM	> 30 µM	> 30 µM	> 30 µM	> 30 µM	2.77 µM	> 10 µM	> 30 µM	> 10 µM	–	> 30 µM	> 30 µM	–
CN1CCCC(CC2c3ccccc3Sc3ccccc32)C1 (stereo not drawn) [METHIXENE]	> 30 µM	> 30 µM	4.82 µM	20.3 µM	> 30 µM	> 30 µM	3.29 µM	0.586 µM	> 30 µM	13.9 µM	> 30 µM	2.03 µM	> 30 µM	> 30 µM	> 30 µM	25 µM	> 30 µM	> 30 µM	–	18.2 µM	AC50 (D(3) dopamine receptor): 0.742 µM
COc1cc(C[C@@H]2NCCc3cc(O)c(O)cc32)cc(OC)c1OC [TRETOQUINOL]	5.31 µM	> 30 µM	0.829 µM	> 30 µM	> 30 µM	> 30 µM	> 30 µM	> 30 µM	> 30 µM	15.5 µM	> 30 µM	4.72 µM	> 30 µM	> 30 µM	> 30 µM	–	> 30 µM	> 30 µM	–	> 30 µM	AC50 (D(3) dopamine receptor): 1.81 µM
CCOC1O[C@H]([C@@H](COCc2ccccc2)OCc2ccccc2)[C@H](OCc2ccccc2)[C@H]1O (stereo partly drawn) [TRIBENOSIDE]	> 30 µM	> 30 µM	> 30 µM	> 30 µM	> 30 µM	> 30 µM	> 30 µM	15.2 µM	> 30 µM	> 30 µM	> 30 µM	> 30 µM	> 30 µM	> 30 µM	> 30 µM	> 30 µM	14 µM	> 30 µM	11.9 µM	> 30 µM	–
